# Data published in PubChem BioAssay (NCI).
#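 Growth conditions: 96-well plates. Treatment: test compound, 48 hours, 5 concentrations. Analysis: linear interpolation between bracketing concentrations; unreached endpoints set to highest concentration. Abbreviation: GI50, concentration required for 50% inhibition of growth. TGI: concentration producing complete growth inhibition.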
# How the values were obtained:
# Assay in all cases: inhibition of tumour cell growth, NCI panel, 48 h
# SK-MEL-5 melanoma = test system: SK-MEL-5 melanoma
# NCI-H522 lung = test system: NCI-H522 lung
# IGROV1 ovarian = test system: IGROV1 ovarian
# MALME-3M melanoma = test system: MALME-3M melanoma
# BT-549 breast = test system: BT-549 breast
# OVCAR-4 ovarian = test system: OVCAR-4 ovarian
# HCC-2998 colon = test system: HCC-2998 colon
# MDA-MB-435 = test system: MDA-MB-435
# SN12C renal = test system: SN12C renal
# UACC-257 melanoma = test system: UACC-257 melanoma
# UACC-62 melanoma = test system: UACC-62 melanoma
# MOLT-4 leukemia = test system: MOLT-4 leukemia
# HCT-116 colon = test system: HCT-116 colon
# ACHN renal = test system: ACHN renal
# SR leukemia = test system: SR leukemia
# HOP-62 NSCLC = test system: HOP-62 NSCLC
# CAKI-1 renal = test system: CAKI-1 renal
# SF-539 CNS = test system: SF-539 CNS
# SF-268 CNS = test system: SF-268 CNS
# HL-60(TB) leukemia = test system: HL-60(TB) leukemia
# 786-0 renal = test system: 786-0 renal
# RXF 393 renal = test system: RXF 393 renal
# NCI-H23 lung = test system: NCI-H23 lung
# M14 melanoma = test system: M14 melanoma
# SF-295 CNS = test system: SF-295 CNS
# U251 CNS = test system: U251 CNS
# OVCAR-8 ovarian = test system: OVCAR-8 ovarian
# NCI/ADR-RES ovarian = test system: NCI/ADR-RES ovarian
# OVCAR-5 ovarian = test system: OVCAR-5 ovarian
# T-47D breast = test system: T-47D breast
# SK-MEL-28 melanoma = test system: SK-MEL-28 melanoma
# NCI-H226 lung = test system: NCI-H226 lung
# SNB-75 CNS = test system: SNB-75 CNS
# K-562 leukemia = test system: K-562 leukemia
# A549 NSCLC = test system: A549 NSCLC
# RPMI-8226 leukemia = test system: RPMI-8226 leukemia
# OVCAR-3 ovarian = test system: OVCAR-3 ovarian
# HS 578T breast = test system: HS 578T breast
# SNB-19 CNS = test system: SNB-19 CNS
# TK-10 renal = test system: TK-10 renal
# NCI-H460 lung = test system: NCI-H460 lung
# CCRF-CEM leukemia = test system: CCRF-CEM leukemia
# KM12 colon = test system: KM12 colon
# UO-31 renal = test system: UO-31 renal
# PC-3 prostate = test system: PC-3 prostate
# SK-OV-3 ovarian = test system: SK-OV-3 ovarian
# A498 renal = test system: A498 renal
# HCT-15 colon = test system: HCT-15 colon
# DU-145 prostate = test system: DU-145 prostate
# HT29 colon = test system: HT29 colon
# EKVX NSCLC = test system: EKVX NSCLC
# COLO 205 colon = test system: COLO 205 colon
# SK-MEL-2 melanoma = test system: SK-MEL-2 melanoma
smiles,measurement,setting,value
Cc1ccc2c(n1)C(=O)C(Cl)=C(Nc1ccc(C(C)C)cc1)C2=O,GI50,SK-MEL-5 melanoma,1.59 µM
same,TGI,SK-MEL-5 melanoma,3 µM
same,GI50,NCI-H522 lung,2.02 µM
same,TGI,NCI-H522 lung,4.58 µM
same,GI50,IGROV1 ovarian,1.29 µM
same,TGI,IGROV1 ovarian,2.96 µM
same,GI50,MALME-3M melanoma,1.65 µM
same,TGI,MALME-3M melanoma,3.38 µM
same,GI50,BT-549 breast,1.51 µM
same,TGI,BT-549 breast,2.9 µM
same,GI50,OVCAR-4 ovarian,1.57 µM
same,TGI,OVCAR-4 ovarian,3.15 µM
same,GI50,HCC-2998 colon,1.99 µM
same,TGI,HCC-2998 colon,3.65 µM
same,GI50,MDA-MB-435,1.93 µM
same,TGI,MDA-MB-435,3.7 µM
same,GI50,SN12C renal,2.03 µM
same,TGI,SN12C renal,5.38 µM
same,GI50,UACC-257 melanoma,1.69 µM
same,TGI,UACC-257 melanoma,3.18 µM
same,GI50,UACC-62 melanoma,1.83 µM
same,TGI,UACC-62 melanoma,3.77 µM
same,GI50,MOLT-4 leukemia,2.16 µM
same,TGI,MOLT-4 leukemia,6.36 µM
same,GI50,HCT-116 colon,1.52 µM
same,TGI,HCT-116 colon,3.41 µM
same,GI50,ACHN renal,1.66 µM
same,TGI,ACHN renal,3.09 µM
same,GI50,SR leukemia,0.643 µM
same,TGI,SR leukemia,3.48 µM
same,GI50,HOP-62 NSCLC,5.34 µM
same,TGI,HOP-62 NSCLC,20.1 µM
same,GI50,CAKI-1 renal,1.53 µM
same,TGI,CAKI-1 renal,3.15 µM
same,GI50,SF-539 CNS,1.62 µM
same,TGI,SF-539 CNS,3.07 µM
same,GI50,SF-268 CNS,1.76 µM
same,TGI,SF-268 CNS,3.86 µM
same,GI50,HL-60(TB) leukemia,1.44 µM
same,TGI,HL-60(TB) leukemia,3.5 µM
same,GI50,786-0 renal,2.08 µM
same,TGI,786-0 renal,4.5 µM
same,GI50,RXF 393 renal,1.49 µM
same,TGI,RXF 393 renal,2.85 µM
same,GI50,NCI-H23 lung,1.82 µM
same,TGI,NCI-H23 lung,5.05 µM
same,GI50,M14 melanoma,1.7 µM
same,TGI,M14 melanoma,3.25 µM
same,GI50,SF-295 CNS,3.63 µM
same,TGI,SF-295 CNS,13 µM
same,GI50,U251 CNS,1.76 µM
same,TGI,U251 CNS,3.51 µM
same,GI50,OVCAR-8 ovarian,2.59 µM
same,TGI,OVCAR-8 ovarian,9.48 µM
same,GI50,NCI/ADR-RES ovarian,2.53 µM
same,TGI,NCI/ADR-RES ovarian,9.2 µM
same,GI50,OVCAR-5 ovarian,1.74 µM
same,TGI,OVCAR-5 ovarian,3.53 µM
same,GI50,T-47D breast,1.18 µM
same,TGI,T-47D breast,3.46 µM
same,GI50,SK-MEL-28 melanoma,1.83 µM
same,TGI,SK-MEL-28 melanoma,3.33 µM
same,GI50,NCI-H226 lung,1.68 µM
same,TGI,NCI-H226 lung,4.35 µM
same,GI50,SNB-75 CNS,1.67 µM
same,TGI,SNB-75 CNS,5.17 µM
same,GI50,K-562 leukemia,0.351 µM
same,TGI,K-562 leukemia,1.68 µM
same,GI50,A549 NSCLC,3.26 µM
same,TGI,A549 NSCLC,12.4 µM
same,GI50,RPMI-8226 leukemia,1.52 µM
same,TGI,RPMI-8226 leukemia,4.53 µM
same,GI50,OVCAR-3 ovarian,1.4 µM
same,TGI,OVCAR-3 ovarian,2.77 µM
same,GI50,HS 578T breast,2.07 µM
same,TGI,HS 578T breast,5.96 µM
same,GI50,SNB-19 CNS,1.9 µM
same,TGI,SNB-19 CNS,4.57 µM
same,GI50,TK-10 renal,2.57 µM
same,TGI,TK-10 renal,4.13 µM
same,GI50,NCI-H460 lung,3.03 µM
same,TGI,NCI-H460 lung,13.9 µM
same,GI50,CCRF-CEM leukemia,1.9 µM
same,TGI,CCRF-CEM leukemia,5.78 µM
same,GI50,KM12 colon,3.25 µM
same,TGI,KM12 colon,14 µM
same,GI50,UO-31 renal,1.23 µM
same,TGI,UO-31 renal,2.6 µM
same,GI50,PC-3 prostate,1.28 µM
same,TGI,PC-3 prostate,3.16 µM
same,GI50,SK-OV-3 ovarian,10.4 µM
same,TGI,SK-OV-3 ovarian,22.3 µM
same,GI50,A498 renal,12.5 µM
same,TGI,A498 renal,25.2 µM
same,GI50,HCT-15 colon,1.39 µM
same,TGI,HCT-15 colon,3.14 µM
same,GI50,DU-145 prostate,1.73 µM
same,TGI,DU-145 prostate,3.24 µM
same,GI50,HT29 colon,2.57 µM
same,TGI,HT29 colon,6.44 µM
same,GI50,EKVX NSCLC,1.5 µM
same,TGI,EKVX NSCLC,4.18 µM
same,GI50,COLO 205 colon,1.89 µM
same,TGI,COLO 205 colon,3.97 µM
same,GI50,SK-MEL-2 melanoma,1.81 µM
same,TGI,SK-MEL-2 melanoma,3.54 µM
